Measurements taken from PubChem BioAssay (NCI).
Where “and” joins values, the source holds several entries; their conditions need not be identical. Identical values can stand only once.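 Interpolation was linear, between the two tested concentrations surrounding the appropriate level; five concentrations were tested over 48 hours in 96-well plates. The concentration for 50% growth inhibition is given as GI50. TGI: concentration producing complete growth inhibition.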

Key:
Experiment in all cases: DTP human tumour cell line panel, 48 h
A549 NSCLC = system: A549 NSCLC
HCC-2998 colon = system: HCC-2998 colon
HCT-15 colon = system: HCT-15 colon
K-562 leukemia = system: K-562 leukemia
LOX IMVI melanoma = system: LOX IMVI melanoma
NCI-H23 lung = system: NCI-H23 lung
RPMI-8226 leukemia = system: RPMI-8226 leukemia
SNB-75 CNS = system: SNB-75 CNS
SR leukemia = system: SR leukemia
MDA-MB-435 = system: MDA-MB-435

Structure (SMILES)	TGI (A549 NSCLC)	TGI (HCC-2998 colon)	TGI (HCT-15 colon)	TGI (K-562 leukemia)	TGI (LOX IMVI melanoma)	TGI (NCI-H23 lung)	TGI (RPMI-8226 leukemia)	TGI (SNB-75 CNS)	TGI (SR leukemia) [µM]	TGI (MDA-MB-435)	GI50 (A549 NSCLC) [µM]	GI50 (HCC-2998 colon) [µM]	GI50 (HCT-15 colon) [µM]	GI50 (K-562 leukemia)	GI50 (MDA-MB-435) [µM]	GI50 (NCI-H23 lung) [µM]	GI50 (RPMI-8226 leukemia)	GI50 (LOX IMVI melanoma)	GI50 (SR leukemia) [µM]	GI50 (SNB-75 CNS) [µM]
O=C(NCC(O)CNC(=O)C(F)(F)F)C(F)(F)F	> 100 µM	> 100 µM	> 100 µM	> 100 µM	> 100 µM	> 100 µM	> 100 µM	> 100 µM	> 100											
CSc1ncnc2c1ncn2C1OC(CO)C(O)OC1O (centres undefined)	> 100 µM		> 100 µM	59.8 µM	15.4 µM	> 44 µM	79.5 µM	31.8 µM	> 100	23.8 µM										
OCC1OC(n2cnc3c(Cl)nc(Cl)cc32)C(O)C1O (centres undefined)	> 100 µM	> 100 µM	> 100 µM	> 100 µM		> 100 µM	> 100 µM			> 100 µM	> 100	> 100	> 100	> 100 µM	> 100	> 100	> 100 µM			
NC1=NCCN1CC(=O)O	> 10000 µM	> 10000 µM	> 10000 µM	> 1000 µM	> 10000 µM	> 10000 µM	> 10000 µM		> 10000	> 10000 µM	> 10000	> 10000	> 10000		> 10000	> 10000	> 10000 µM	> 10000 µM	> 10000	
C=C1C(=O)O[C@@H]2C1C[C@@H](O)C(=C)CC/C=C(\C)CCC[C@H](C)[C@H]2OC(C)=O (some centres undefined)	48.8 µM	29.2 µM	14 µM	7.76 µM	6.07 µM	15 µM	6.61 µM	33.6 µM		26.7 µM	22.9	15.4	3.04	2.8 µM	12.9	3.71	2.52 µM	2.14 µM		13.9
CC(=O)[C@@]1(O)[C@H](C)C[C@H]2[C@@H]3C=C(C)C4=Cc5c(cnn5-c5ccccc5)C[C@]4(C)[C@H]3[C@@H](O)C[C@@]21C	13.9 µM	5.73 µM	2.66 µM		4.6 µM	9.96 µM		11 µM		8.7 µM	1.82	2.13	0.81	0.659 µM	2.44	2.48		1.69 µM	1.77	2.65
CC(C)(C)OC(=O)NC(CO)c1cccc(OCc2ccccc2)c1 (centres undefined)	> 100 µM	> 100 µM	> 100 µM	> 100 µM	> 100 µM	> 100 µM	> 100 µM	> 100 µM	> 100											
COc1ccc(OC(C(=O)O)c2ccccc2)c2c1CCCC2=O (centres undefined)	> 100 µM	> 100 µM	> 100 µM	> 100 µM	> 100 µM	> 100 µM	> 100 µM													
CNC(=O)c1cccc2c(Nc3ccc(NS(C)(=O)=O)cc3OC)c3cccc(C)c3nc12	1.61 µM	2.34 µM	2.34 µM	4.79 µM	3.17 µM	0.58 µM	1.7 µM	1.34 µM	0.365											
O=c1oc2ccc(-n3c(=O)c4ccccc4c4ccccc4c3=O)cc2c2ccccc12	> 100 µM	> 100 µM	> 100 µM	> 100 µM	> 100 µM	> 100 µM	> 100 µM	85.7 µM		> 100 µM										
c1ccc2c(c1)[nH]c1c2nc2ncccn21	> 100 µM	> 100 µM		> 100 µM		> 100 µM		> 100 µM	> 100											
C=C(C)[C@@H]1CC[C@]2(CO)CC[C@]3(C)[C@H](CC[C@@H]4[C@@]5(C)CCC(NCCc6ccc(O)cc6)C(C)(C)[C@@H]5CC[C@]43C)[C@@H]12 (some centres undefined)	3 µM	2.23 µM	2.68 µM	1.66 µM	2.09 µM	3.35 µM			1.07	2.77 µM	1.48	0.97	1.23	0.31 µM	1.43	1.79		0.783 µM	0.334	
O=c1oc(=O)c2oc3ccccc3oc1=2	> 100 µM	> 100 µM	> 100 µM	> 100 µM	> 100 µM	> 100 µM		> 100 µM	> 100											
O=C(NC1C2CC3CC(C2)CC1C3)c1cc(/C=C/c2ccccc2)[nH]c(=S)n1 (centres undefined)	> 100 µM	> 100 µM		> 100 µM	> 100 µM	> 100 µM	> 100 µM	> 100 µM	> 100											
O=S(O)CCCSSc1ccccc1	> 100 µM	> 100 µM	> 100 µM	> 100 µM	> 100 µM	> 100 µM		88.2 µM												
O=C1CC(O)(c2ccccc2)C(c2ccccc2)=C1c1ccccc1 (centres undefined)	> 100 µM	> 100 µM	> 100 µM	> 100 µM	> 100 µM	> 100 µM	57.7 µM	96.7 µM												
Cc1cn2c(/C=N/N=C(N)N)c(-c3cccnc3)nc2s1	56.1 µM		18.1 µM		28.7 µM	25.2 µM	58.9 µM			7.15 µM	16.3		4.39		2.4	11.9	8.91 µM	12.9 µM		
CCC[CH2][Sn]1([CH2]CCC)[O]C(=O)c2ccc(C)cc2[O]1	2.97 µM	2.38 µM		0.846 µM	0.357 µM	1.76 µM	0.76 µM	0.659 µM	1.25		1.57	1.14		0.247 µM		0.472	0.21 µM	0.184 µM	0.255	0.226
N#CC1=C(N)NC(=S)NC12Nc1ccccc1N2	> 100 µM			> 100 µM	> 100 µM	> 100 µM	> 100 µM		> 100	> 100 µM	37.6			28.1 µM	19.6	36.7	21.7 µM	80.1 µM	6.18	

Structure (SMILES)	TGI (A549 NSCLC)	TGI (HCC-2998 colon)	TGI (HCT-15 colon)	TGI (K-562 leukemia)	TGI (LOX IMVI melanoma)	TGI (NCI-H23 lung)	TGI (RPMI-8226 leukemia)	TGI (SNB-75 CNS)	TGI (SR leukemia) [µM]	TGI (MDA-MB-435)	GI50 (A549 NSCLC) [µM]	GI50 (HCC-2998 colon) [µM]	GI50 (HCT-15 colon) [µM]	GI50 (K-562 leukemia)	GI50 (MDA-MB-435) [µM]	GI50 (NCI-H23 lung) [µM]	GI50 (RPMI-8226 leukemia)	GI50 (LOX IMVI melanoma)	GI50 (SR leukemia) [µM]	GI50 (SNB-75 CNS) [µM]
CCCCCCc1nc2nc(Cl)c(Cl)nc2[nH]1	> 100 µM	> 100 µM	> 100 µM	> 100 µM	> 100 µM	> 100 µM	> 100 µM		> 100	> 100 µM	4.34	> 100	5.06	5.29 µM	8.68	3.68	2.66 µM	6.24 µM	8.98	
N#C/C(=C/Sc1ccccc1)C(=O)O	> 100 µM		> 100 µM	> 100 µM	24.5 µM	> 100 µM	> 100 µM	55.9 µM	> 100											
S=c1nc(Cl)cc2[nH]c(Cl)cn12	> 100 µM	> 100 µM	> 100 µM		> 100 µM	48.8 µM	43.3 µM	13.8 µM		4.74 µM										
COc1cc(O)c2c(c1)C(=O)c1cc3c(c(O)c1C2=O)C(OC1OC(C)C(O)C(O)C1OC)C(OC)C(C)(O)C3=O (centres undefined)	12 µM	5.14 µM and 12.4 µM	12.2 µM and 7.35 µM	> 100 µM and 72.5 µM	4.91 µM and 7.1 µM	6.03 µM and 8.08 µM	59.6 µM and 30.5 µM	15.7 µM and 10.1 µM	> 100			2.22	2.65	2.24 µM and 12.2 µM		2.36	2.46 µM and 9.76 µM	1.67 µM	2.16	2.84
CCCCN(CCCC)CCCn1c(=O)c2c3ccccc3n(C)c2n2nnc(-c3ccccc3)c12	> 100 µM	> 100 µM	> 100 µM	> 100 µM	> 100 µM	62.6 µM	49.4 µM	56.2 µM		> 100 µM	43.9	20.3	20.7	13.9 µM	39	13	6 µM	28.4 µM		15.1
COC(=O)c1ccc(Cl)cc1NC(=O)C1CCCCC1	> 100 µM	> 100 µM	> 100 µM	> 100 µM		> 100 µM	> 100 µM		> 100											
CN(C)CCOC(c1ccccc1)c1ccccc1	51.7 µM and > 100 µM	> 100 µM	51.5 µM and > 100 µM	> 100 µM	> 100 µM	53.4 µM and > 100 µM	> 100 µM		> 100	44.1 µM and > 100 µM	35.9		36.7		24.6	38				
COc1ccc2oc(C(=O)O)c3c2c1CCC3	> 100 µM	> 100 µM	> 100 µM	> 100 µM	> 100 µM	> 100 µM	> 100 µM	> 100 µM												
CCS(=O)(=O)Nc1cccc(Nc2c3cccc(C)c3nc3c(C)cccc23)c1OC	4.02 µM	> 71.1 µM	> 100 µM	> 45.3 µM	> 91.5 µM	> 100 µM	12.5 µM	22 µM		> 86 µM	0.202	2.99	1.31	1.55 µM	4.05	0.653	0.573 µM	0.273 µM		1
O=C1c2ccccc2C(=O)N1C/C=C/CO	> 100 µM	> 100 µM	> 100 µM	> 100 µM			> 100 µM	> 100 µM	> 100											
S=C(N/N=C(/c1ccccc1)c1ccccn1)N1CCCCCC1	1.7 µM and 2.25 µM	3.13 µM and 1.98 µM	2.05 µM and 1.53 µM	0.0117 µM	1.79 µM and 1.27 µM	2.11 µM		2.04 µM and 1.95 µM		1.59 µM and 1.58 µM	0.0318	1.17	0.00327	< 0.001 µM	0.043			0.00892 µM and 0.0583 µM		0.66
CN(C)CCCNC(=O)c1cncnc1Nc1ccc(OCc2cccc(F)c2)c(Cl)c1	3.37 µM	3.01 µM	2.75 µM	3.73 µM	2.81 µM	3.28 µM		3.22 µM		3.33 µM	1.71	1.55	1.38	1.74 µM	1.8	1.74		1.44 µM		1.64
OC1C2CCC1C1C3C=CC(C3)C21 (centres undefined)	> 100 µM		> 100 µM	> 100 µM	> 100 µM	> 100 µM	> 100 µM	> 100 µM	> 100											
CC1(C)CCC(C)(C)c2c1ccc(O)c2Cc1c(O)ccc2c1C(C)(C)CCC2(C)C	5.57 µM		3.98 µM	5.41 µM	3.39 µM	4.11 µM	4.47 µM	5.33 µM	6.8	3.48 µM										
NCCN1C(=O)C2C3c4ccccc4C(c4ccccc43)C2C1=O (centres undefined)	> 100 µM	> 100 µM	> 100 µM	> 100 µM		> 100 µM	> 100 µM	> 100 µM												
C[n+]1ccc(-c2c3nc(c(-c4cc[n+](C)cc4)c4ccc([n-]4)c(-c4cc[n+](C)cc4)c4nc(c(-c5cc[n+](C)cc5)c5ccc2[n-]5)C=C4)C=C3)cc1.[I-].[Zn+2]	49.5 µM	> 100 µM	> 100 µM	59.8 µM	> 100 µM	59.2 µM	> 100 µM	32.8 µM	94.7		22.3	49.6	> 100	23 µM		26.8	32.1 µM	82.9 µM	32.2	12.5
COc1ccc(CNc2nc3cc(N)cc(N)c3nc2-c2ccccc2)cc1	59.8 µM	51.7 µM	34.5 µM	97.1 µM	27.4 µM	34.4 µM	15.9 µM		> 100	21.7 µM	21.5	21.8	15.9	25.4 µM	10.1	16.8		13.6 µM	4.09	
CCOc1ccccc1NC(=O)CCc1n[nH]c(=S)o1	> 100 µM			> 100 µM	> 100 µM	> 100 µM	> 100 µM	> 100 µM	> 100											
COc1cc2c(cc1OC)C(=O)Cc1ccc(OC)c(OC)c1CN(C)CC2	> 100 µM	> 100 µM	> 100 µM	> 100 µM	> 100 µM	> 100 µM	> 100 µM	> 100 µM												
